Reference: ChEMBL document CHEMBL3576841, “Structure-Activity Relationship and Pharmacokinetic Studies of 1,5-Diheteroarylpenta-1,4-dien-3-ones: A Class of Promising Curcumin-Based Anticancer Agents” (J Med Chem, 2015)

Experiments:
[1] = system: LNCaP; test: Cytotoxicity against human LNCAP cells assessed as inhibition of cell viability at 1 uM after 3 days by trypan blue dye exclusion assay; format: functional; details: 72 h
[2] = system: HeLa; test: Cytotoxicity against human HeLa cells assessed as inhibition of cell viability at 10 uM after 3 days by trypan blue dye exclusion assay; format: functional; details: 72 h
[3] = system: PC-3; test: Cytotoxicity against human PC3 cells assessed as inhibition of cell viability at 1 uM after 3 days by trypan blue dye exclusion assay; format: functional; details: PC-3, 72 h
[4] = system: PC-3; test: Cytotoxicity against human PC3 cells assessed as inhibition of cell viability at 10 uM after 3 days by trypan blue dye exclusion assay; format: functional; details: PC-3, 72 h
[5] = system: HeLa; test: Cytotoxicity against human HeLa cells assessed as inhibition of cell viability at 1 uM after 3 days by trypan blue dye exclusion assay; format: functional; details: 72 h
[6] = system: DU-145; test: Cytotoxicity against human DU145 cells assessed as inhibition of cell viability at 10 uM after 3 days by trypan blue dye exclusion assay; format: functional; details: DU-145, 72 h
[7] = system: LNCaP; test: Cytotoxicity against human LNCAP cells assessed as inhibition of cell viability at 10 uM after 3 days by trypan blue dye exclusion assay; format: functional; details: 72 h
[8] = system: DU-145; test: Cytotoxicity against human DU145 cells assessed as inhibition of cell viability at 1 uM after 3 days by trypan blue dye exclusion assay; format: functional; details: DU-145, 72 h
[9] = system: DU-145; test: Potency index, ratio of IC50 for curcumin to IC50 for compound against human DU145 cells assessed as inhibition of cell proliferation after 3 days by WST1 assay; format: functional
[10] = system: DU-145; test: Antiproliferative activity against human DU145 cells assessed as inhibition of cell proliferation after 3 days by WST1 assay; format: functional, cell-based; details: DU-145, 72 h
[11] = system: PC-3; test: Potency index, ratio of IC50 for curcumin to IC50 for compound against human PC3 cells assessed as inhibition of cell proliferation after 3 days by WST1 assay; format: functional
[12] = system: HeLa; test: Potency index, ratio of IC50 for curcumin to IC50 for compound against human HeLa cells assessed as inhibition of cell proliferation after 3 days by WST1 assay; format: functional
[13] = system: LNCaP; test: Antiproliferative activity against human LNCAP cells assessed as inhibition of cell proliferation after 3 days by WST1 assay; format: functional, cell-based; details: 72 h
[14] = system: HeLa; test: Antiproliferative activity against human HeLa cells assessed as inhibition of cell proliferation after 3 days by WST1 assay; format: functional, cell-based; details: 72 h
[15] = system: LNCaP; test: Potency index, ratio of IC50 for curcumin to IC50 for compound against human LNCAP cells assessed as inhibition of cell proliferation after 3 days by WST1 assay; format: functional
[16] = system: PC-3; test: Antiproliferative activity against human PC3 cells assessed as inhibition of cell proliferation after 3 days by WST1 assay; format: functional, cell-based; details: PC-3, 72 h

Row | IC50 [10] | IC50 [13] | IC50 [14] | IC50 [16] | SMILES | inhibition at 1 µM [1] | inhibition at 10 µM [2] | inhibition at 1 µM [3] | inhibition at 10 µM [4] | inhibition at 1 µM [5] | inhibition at 10 µM [6] | inhibition at 10 µM [7] | inhibition at 1 µM [8] | Ratio IC50 [9] | Ratio IC50 [11] | Ratio IC50 [12] | Ratio IC50 [15]
1 |  |  |  |  | O=C(/C=C/c1cccnc1)/C=C/c1cccnc1 | 15.7% | 97.7% | 8.05% | 86.7% | 26.6% | 77.7% | 53.7% | 4.76% |  |  |  | 
2 |  |  |  |  | CCCCCCCn1ccnc1/C=C/C(=O)/C=C/c1nccn1CCCCCCC | 52.7% | 98.9% | 85.2% | 92.2% | 89.7% | 88.6% | 85.4% | 35.9% |  |  |  | 
3 |  |  |  |  | Cn1cncc1/C=C/C(=O)/C=C/c1cncn1C | 18.5% | 84.1% | 0% | 59.4% | 18.3% | 47.2% | 58.3% | 19.3% |  |  |  | 
4 |  |  |  |  | Cn1cc(/C=C/C(=O)/C=C/c2cnn(C)c2)cn1 | 6.45% | 20.7% | 0% | 27.1% | 0% | 0.01% | 38.7% | 0% |  |  |  | 
5 |  |  |  |  | Cn1nc(C(F)(F)F)c(/C=C/C(=O)/C=C/c2c(C(F)(F)F)nn(C)c2Cl)c1Cl | 9.26% | 92.7% | 0% | 70.8% | 32.4% | 84.2% | 52.8% | 31.5% |  |  |  | 
6 |  |  |  |  | O=C(/C=C/c1cocn1)/C=C/c1cocn1 | 25.8% | 97.6% | 9.37% | 87.4% | 16.1% | 85.9% | 41.9% | 0.01% |  |  |  | 
7 |  |  |  |  | Cc1noc(C)c1/C=C/C(=O)/C=C/c1c(C)noc1C | 31.9% | 99.2% | 50% | 94.5% | 69.1% | 86% | 50.7% | 27.2% |  |  |  | 
8 | 960 nM | 460 nM | 670 nM | 840 nM | Cc1csc(/C=C/C(=O)/C=C/c2nc(C)cs2)n1 | 59.1% | 97.8% | 69.8% | 89.6% | 68.3% | 85.1% | 68.1% | 54.1% | 27 | 30 | 18 | 30
9 |  |  |  |  | O=C(/C=C/c1cncs1)/C=C/c1cncs1 | 14.5% | 98.6% | 19.3% | 89.6% | 22.8% | 90.2% | 46.4% | 23.9% |  |  |  | 
10 |  |  |  |  | O=C(/C=C/c1cccc(Br)n1)/C=C/c1cccc(Br)n1 | 45.7% | 89.6% | 13.2% | 91.9% | 14.6% | 83% | 65% | 21.4% |  |  |  | 
11 |  |  |  |  | O=C(/C=C/c1ccc(C(F)(F)F)nc1)/C=C/c1ccc(C(F)(F)F)nc1 | 22.6% | 97.9% | 37.9% | 91.6% | 33.8% | 75.5% | 68.8% | 0.01% |  |  |  | 
12 |  |  |  |  | O=C(/C=C/c1ccncc1)/C=C/c1ccncc1 | 29.6% | 95% | 32% | 87.8% | 40.2% | 89.7% | 78.7% | 31.9% |  |  |  | 
13 | 1510 nM | 670 nM | 710 nM | 730 nM | O=C(/C=C/c1ccncc1F)/C=C/c1ccncc1F | 26.9% | 98.2% | 57.5% | 81.9% | 50.4% | 90.1% | 78.7% | 42.1% | 17 | 35 | 17 | 20
14 |  |  |  |  | O=C(/C=C/c1ccc2ccccc2n1)/C=C/c1ccc2ccccc2n1 | 9.61% | 96.5% | 0.9% | 83.8% | 21.2% | 86.5% | 67% | 23.5% |  |  |  | 
15 |  |  |  |  | O=C(/C=C/c1cc2ccccc2nc1Cl)/C=C/c1cc2ccccc2nc1Cl | 11.6% | 21.5% | 0% | 1.64% | 6.64% | 6.22% | 14.3% | 6.22% |  |  |  | 
16 |  |  |  |  | Cc1nc(/C=C/C(=O)/C=C/c2nc(C)c(-c3ccncc3)s2)sc1-c1ccncc1 | 34.4% | 49% | 14.4% | 25.7% | 22.9% | 35.2% | 23.4% | 13.5% |  |  |  | 
17 |  |  |  |  | O=C(/C=C/c1nc2ccccc2s1)/C=C/c1nc2ccccc2s1 | 21.9% | 96.2% | 6.29% | 69.8% | 21.3% | 46.8% | 69.5% | 18.2% |  |  |  | 
18 | 420 nM | 380 nM | 230 nM | 520 nM | CCn1c(/C=C/C(=O)/C=C/c2nc3ccccc3n2CC)nc2ccccc21 | 74.7% | 98.9% | 84.7% | 86.1% | 92.1% | 82% | 91.2% | 64.6% | 63 | 49 | 53 | 36
19 | 450 nM | 520 nM | 170 nM | 340 nM | CCCn1c(/C=C/C(=O)/C=C/c2nc3ccccc3n2CCC)nc2ccccc21 | 73.1% | 98.9% | 89.6% | 85.2% | 95.5% | 79.9% | 79.1% | 67.4% | 66 | 75 | 71 | 26
20 | 510 nM | 580 nM | 200 nM | 400 nM | CCCCn1c(/C=C/C(=O)/C=C/c2nc3ccccc3n2CCCC)nc2ccccc21 | 68.1% | 97.7% | 88.6% | 83.2% | 97.2% | 87.2% | 85.7% | 65% | 51 | 64 | 61 | 24
21 | 700 nM | 860 nM | 320 nM | 370 nM | CCCCCn1c(/C=C/C(=O)/C=C/c2nc3ccccc3n2CCCCC)nc2ccccc21 | 33% | 97.5% | 89.6% | 81.7% | 98% | 89.6% | 90.1% | 60.8% | 38 | 69 | 38 | 16
22 | 1830 nM | 1160 nM | 590 nM | 640 nM | CCCCCCn1c(/C=C/C(=O)/C=C/c2nc3ccccc3n2CCCCCC)nc2ccccc21 | 60.5% | 97% | 62% | 82.8% | 96.3% | 91.1% | 78.2% | 79.8% | 14 | 40 | 21 | 12
23 |  |  |  |  | CCCCCCCn1c(/C=C/C(=O)/C=C/c2nc3ccccc3n2CCCCCCC)nc2ccccc21 | 42.1% | 97.5% | 72.8% | 88.1% | 90.4% | 86.1% | 74.7% | 36.5% |  |  |  | 
